Experiments:
[1] = tested on: IGFBP7 protein; test: IGFBP7 protein expression (immunoblotting) in rat neonatal cardiomyocytes treated with hypertrophic stimuli; assay type: cell-based; details: vs solvent treated control
Description: In order to investigate where Igfbp7 is localized under stress, immunofluorescent staining were used to visualize Igfbp7 in rNCM 2 and 24 hours post treatment. As shown in FIG. 3(b), Igfbp7 were evenly distributed in untreated control cells. Hypertrophic stimuli not only led to increased Igfbp7 expression, but also led to Igfbp7 being localized to the cell membrane. Co-immunostaining with FM1-43 as shown (FIG. 3(c)), upon isoproterenol treatment, Igfbp7 (red) not only moved to cell membrane region, but also co-localized with FM1-43 labeled membrane bound vesicle (green), indicating Igfbp7 was trapped into the membrane bound vesicles for secretion.
NC represents solvent treated control. FIGS. 3(b) and 3(c) show representative confocal microscopy images. […] IGFBP7 was immunofluoresently stained with Alexa Fluor 555 labeled anti-IGFBP7 antibody.
Whole-cell lysates from tissue and cell samples were prepared on ice with Cell Lysis Buffer (Cell Signaling, 9803) containing a Complete cocktail of proteases inhibitors (Roche Applied Science, 05892791001). Lysates were cleared by centrifugation at 12,000 rpm for 10 min. The supernatants were collected and protein concentrations determined using the Bio-Rad Bradford protein assay (Bio-Rad, 500-0006). 20 μg of protein lysate were separated by Bolt Bis-Tris Plus mini Gel System (ThermoFisher) and electrophoretically transferred to PVDF membranes (Bio-Rad, 162-0177). Membranes were incubated overnight at 4° C. with antibodies reactive to the following proteins: IGFBP7 (Abcam, ab171085, 1:1000), CTGF (Abcam, ab6992, 1:1000), 53BP1 (Santa Cruz Biotechnology, sc-22760, 1:200), p21 (Santa Cruz Biotechnology, sc-397, 1:200), Acetyl-p53 (Lys379) (Cell Signaling, #2570, 1:1000), p53 (1C12) (Cell Signaling, #2524, 1:1000), Phospho-IRS-1 (Ser612) (Cell Signaling, #3203, 1:500), Phospho-IRS-1 (Ser318) (Cell Signaling, #5610, 1:500), IRS-1 (Cell signaling, #3407, 1:500), Phospho-Akt (Ser473) (Cell Signaling, #4060, 1:1000), Phospho-Akt (Thr308) (Cell Signaling, #4056, 1:1000), Akt (pan) (Cell Signaling, #4691, 1:1000), Phospho-Erk1/2 (Thr202/Tyr204) (Cell Signaling, #4307, 1:1000), Erk1/2 (Cell Signaling, #9102, 1:1000), Phospho-GSK-3β (Ser9) (Cell Signaling, #9323, 1:1000), GSK-3β (Cell Signaling, #9315, 1:1000), Phospho-IGF-1 Receptor β ((Thy1135) (Cell Signaling, #3918, 1:500), IGF-1 Receptor β (Cell Signaling, #9750, 1:500). […] The intensity of the chemiluminescence signals were detected by using the ChemiDoc XRS+ System (Bio-Rad, 1708265) and quantified using Image Lab software (version 5.2; Bio-Rad). […]

[2] = tested on: IGF-1/Insulin induced AKT activation; test: IGF-1/Insulin induced AKT/GSK3β activation (immunoblotting) in human cardiac myocytes; assay type: cell-based; details: HCM with IGFBP7 siRNA, ppp pre-treatment 1 or 10 μM for 1 h, IGF-1 (100 ng/ml) 15 min
Description: Indeed, in FIG. 9, human cardiac myocytes were treated with (−)control siRNA and IGFBP7 siRNA for 48 h, followed by replacement with basic medium (serum and growth factors withdrew) for 4 h. In FIG. 9(a), the cells were then stimulated with IGF1 (100 ng/ml) or Insulin (4 μg/ml) for 15 min, before lyses of the cell for immunoblotting. Representative immunoblotting of phosphor-AKT, total AKT, phosph-GSK3β and total GSK3β are shown. GAPDH was used as loading control. In FIG. 9(b), before adding IGF-1, cells were pre-treated with IGF-1R inhibitor Picropodophyllin (PPP) ppp at 1 or 10 μM for 1 h, and finally stimulated with IGF-1 (100 ng/ml) for 15 min. Representative immunoblotting of phosphor-AKT and total AKT showing reduced AKT activity in IGFBP7 knock down cells is shown. GAPDH was used as loading control. […] GAPDH were used as loading control.
Whole-cell lysates from tissue and cell samples were prepared on ice with Cell Lysis Buffer (Cell Signaling, 9803) containing a Complete cocktail of proteases inhibitors (Roche Applied Science, 05892791001). […] The supernatants were collected and protein concentrations determined using the Bio-Rad Bradford protein assay (Bio-Rad, 500-0006). […] The intensity of the chemiluminescence signals were detected by using the ChemiDoc XRS+ System (Bio-Rad, 1708265) and quantified using Image Lab software (version 5.2; Bio-Rad). […]

[3] = tested on: IGF-1 Receptor β and Akt phosphorylation; test: IGF-1 receptor-dependent signaling (immunoblotting) in IGFBP7 deficient and WT MEF; assay type: cell-based; details: ppp 1 or 10 μM for 1 h, IGF-1 (100 ng/ml) 15 min
[4] = tested on: IGF-1/Insulin induced AKT and Gsk3β activation; test: IGF-1/Insulin induced Akt and Gsk3β activation in HCM with internal over-expression of IGFBP7; assay type: cell-based, human; details: HCM transfected with IGFBP7 plasmid, inhibitor 500 nM for 1 h before IGF-1 or Insulin 15 min
[5] = tested on: IGF-1/Insulin induced AKT and Gsk3β activation; test: Effect of external recombinant IGFBP7 protein on IGF-1/Insulin induced AKT and Gsk3β activation in HCM; assay type: cell-based, human; details: HCM pretreated with recombinant protein for 2 h, then IGF-1 or insulin 15 min
Description: HCM were pretreated with recombinant IGFBP7 protein at indicated concentration for 2 h, followed by IGF-1 or insulin induction for 15 min. Vinculin was used as loading control.
Whole-cell lysates from tissue and cell samples were prepared on ice with Cell Lysis Buffer (Cell Signaling, 9803) containing a Complete cocktail of proteases inhibitors (Roche Applied Science, 05892791001). Lysates were cleared by centrifugation at 12,000 rpm for 10 min. The supernatants were collected and protein concentrations determined using the Bio-Rad Bradford protein assay (Bio-Rad, 500-0006). 20 μg of protein lysate were separated by Bolt Bis-Tris Plus mini Gel System (ThermoFisher) and electrophoretically transferred to PVDF membranes (Bio-Rad, 162-0177). […] The intensity of the chemiluminescence signals were detected by using the ChemiDoc XRS+ System (Bio-Rad, 1708265) and quantified using Image Lab software (version 5.2; Bio-Rad). […]
To generate IGFBP7 expression plasmid, human IGFBP7 CDS with 6× His Epitope tag added to the 3′-end were generated by GeneArt gene synthesis and subcloned into pcDNA3.4 TOPO TA Cloning vector (ThermoFisher) to make plasmid pcDNA3.4-hIGFBP7-6× His. […] Expression of secreted IGFBP7-6× His recombinant protein in culture media was monitored daily by immonoblotting with anti 6× His Epitope Tag antibody (ThermoFisher, MA1-21315). […]

## CC(C)NCC(O)c1ccc(O)c(O)c1 (stereo not shown) [isoproterenol]
[1]; isoproterenol 100 nM
  IGFBP7 protein expression: significantly up-regulated

## CNC[C@H](O)c1cccc(O)c1 [phenylephrine]
[1]; phenylephrine 200 nM
  IGFBP7 protein expression: significantly up-regulated

## COc1cc([C@@H]2c3cc4c(cc3[C@H](O)[C@H]3COC(=O)[C@@H]23)OCO4)cc(OC)c1OC [Picropodophyllin, picropodophyllin]
[2]
  AKT activation after IGF-1 stimulation in IGFBP7 knock down cells: further reduced
[3]
  AKT phosphorylation in IGFBP7 deficient MEF: further reduced
  AKT phosphorylation in WT MEF: not in WT MEF
  IGF-1R phosphorylation in IGFBP7 deficient MEF: further reduced

## angiotensin II (DRVYIHPF; Angiotensin-2; UniProt P01019 25-32, looked up) [hypertrophic stimulus]
[1]; 100 nM angiotensin II
  IGFBP7 protein expression: significantly up-regulated

## insulin
[1]; insulin 4 μg/ml
  IGFBP7 protein expression: significantly up-regulated

## C[C@@]1(C(=O)Nc2ccc(F)nc2)CCCN1c1nc(Nc2cc(C3CC3)n[nH]2)c2cccn2n1 [BMS-754807]
[4]
  IGF-1/Insulin induced AKT and GSK3β activation increased by internal over-expression of IGFBP7: blocked

B1: recombinant IGFBP7 protein: recombinant human IGFBP7 protein with 6× His tag expressed in Expi293F cells (protein, UniProt Q16270 27-282, looked up)
Insulin-like growth …: SSSDTCGPCEPASCPPLPPLGCLLGETRDACGCCPMCARGEGEPCGGGGAGRGYCAPGMECVKSRKRRKGKAGAAAGGPGVSGVCVCKSRYPVCGSDGTTYPSGCQLRAASQRAESRGEKAITQVSKGTCEQGPSIVTPPKDIWNVTGAQVYLSCEVIGIPTPVLIWNKVKRGHYGVQRTELLPGDRDNLAIQTRGGPEKHEVTGWVLVSPLSKEDAGEYECHASNSQGQASASAKITVVDALHEIPVKKGEGAEL
modifications: 6xHis tag
notes: recombinant human IGFBP7 protein with 6× His tag expressed in Expi293F cells
[5]
  Effect on IGF-1/Insulin induced AKT and Gsk3β activation: no observed effect
